Reference: PMC10732398 (PLOS Pathogens, 2023)

Tests used:
[1] = tested on: ⍺4β7 on RPMI8866 cells; assay: Flow cytometry: cross-inhibition of MAdCAM-Ig, VCAM-Ig and D1D2-Ig⍺tp binding to RPMI8866 cells; set-up: species or system human; conditions: increasing concentrations of unlabeled inhibitor, Fig 2C, 2D
Description: Cis interactions between various integrins and leukocyte receptors are known to regulate immune cell functions. To determine whether CD4 inhibits MAdCAM-1 or VCAM-1 binding to ⍺4β7 we preincubated RPMI8866 cells with labelled MAdCAM-Ig or VCAM-Ig in the presence of increasing concentrations of unlabeled D1D2-Ig⍺tp. […] This implies that MAdCAM-1 and VCAM-1, acting in trans, may interfere with CD4-⍺4β7 interactions. What remains unknown is whether interactions between ⍺4β7 and CD4 impact CD4 migration into the TCR and subsequent interactions with MHC II (Fig 2E).
Fig 2 Cross-inhibition of MAdCAM-Ig, VCAM-Ig and D1D2-Ig⍺tp binding to ⍺4β7. Flow cytometric analysis of (A) PE -conjugated MAdCAM-Ig or (B) PE -conjugated VCAM-Ig binding to RPMI8866 cells pre-incubated with increasing concentrations of unlabeled D1D2-Igαtp. Cell preincubated with increasing concentrations of (C) unlabeled MAdCAM-Ig or (D) VCAM-Ig followed by PE -conjugated D1D2-Ig⍺tp. Y-axis indicates gMFI. Dashed line indicates gMFI in the absence of any inhibitor.
Cells were stained with fluoresceine conjugated mAbs or recombinant proteins using standard procedures preceded by Fc receptor blocking with human IgG. Buffers used were 10 mM HEPES 150 mM NaCl (HBS Buffer) with 100 μM CaCl2. […] Data were acquired using a FACSCanto II (BD Biosciences) and analyzed with FlowJo software (BD Biosciences). […]

[2] = tested on: ⍺4β7 on RPMI8866 cells; assay: Flow cytometry: ligand staining of ⍺4β7-expressing cells in buffers with different divalent cations; assay type: binding, human; conditions: absence of divalent cations (0.1 mM EDTA)
Description: Fig 1 Binding of soluble CD4 to ⍺4β7 on CD4^+ T cells. (A) Schematic of D1D2-Ig⍺tp. (B) Flow-cytometry histogram of PE-conjugated D1D2-Ig⍺tp staining of CD4^+ T cells alone (blue) or in the presence of either the anti ⍺4 mAb 2B4 (green) or an irrelevant mAb (black-dashed). Cells stained with PE-conjugated MicA-Ig⍺tp (red), along with unstained cells (grey) are included. X-axis indicates geometric mean fluorescence intensity (gMFI). (C) 293T cells untransfected or co-transfected with ⍺4 and β7 expression vectors stained with either PE-D1D2-Ig⍺tp or PE-MAdCAM-Ig in the absence or presence of the ⍺4 antagonist FG. Y-axis indicates gMFI. (D) CD4^+ T cells stained with anti CD45RO (x-axis) anti β7 (y-axis) (left), or with anti CD45RO (x-axis) and D1D2-Ig⍺tp (y-axis) (right). % cells in each quadrant, as indicated. (E) CD4^+ T cells stained as in B, with lower MW forms of oligomerized D1D2-Ig⍺tp. Left Y-axis indicates gMFI (bars), right Y-axis indicates relative MW (kDa) (•). […]
Cells were stained with fluoresceine conjugated mAbs or recombinant proteins using standard procedures preceded by Fc receptor blocking with human IgG. […] Data were acquired using a FACSCanto II (BD Biosciences) and analyzed with FlowJo software (BD Biosciences). […]

“MAdCAM-Ig: recombinant MAdCAM-1 Ig fusion, R&D Systems [reference compound]” was tested, and the “inhibition of PE-conjugated D1D2-Ig⍺tp binding to ⍺4β7 (in words)” value [1] was “inhibited D1D2-Ig⍺tp binding to ⍺4β7 in a dose dependent manner” and the “binding to ⍺4β7 (in words)” value [2] was “failed to bind”.
